IC50 data for 22 compounds are collected here from US12637454B2, “Heterocyclic monoacylglycerol lipase (MAGL) inhibitors” (Hoffmann-La Roche Inc., priority 2019, dated 2026).

For this assay, the target named is T1, MAGL (Homo sapiens, UniProt Q99685).
T1 sequence (Q99685 1-303): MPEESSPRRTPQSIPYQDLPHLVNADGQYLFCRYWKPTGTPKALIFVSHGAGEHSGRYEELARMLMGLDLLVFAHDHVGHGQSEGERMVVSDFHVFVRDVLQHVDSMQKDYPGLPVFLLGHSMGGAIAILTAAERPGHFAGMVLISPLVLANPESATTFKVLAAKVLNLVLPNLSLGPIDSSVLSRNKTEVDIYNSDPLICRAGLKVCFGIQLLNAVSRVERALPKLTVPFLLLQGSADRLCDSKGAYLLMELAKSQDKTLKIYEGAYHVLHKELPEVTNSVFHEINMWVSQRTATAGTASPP
Nature of the assay: 2-AG assay (MAGL inhibitory activity, hydrolysis of 2-arachidonoylglycerol followed by mass spectrometry). The assay is classed as biochemical. Particulars: 50 pM MAGL, 8 μM 2-arachidonoylglycerol, 15 min preincubation, 30 min incubation at RT. The protocol: Compounds were profiled for MAGL inhibitory activity by determining the enzymatic activity by following the hydrolysis of the natural substrate 2-arachidonoylglycerol (2-AG) resulting in arachidonic acid, which can be followed by mass spectrometry. This assay is hereinafter abbreviated “2-AG assay”.
The 2-AG assay was carried out in 384 well assay plates (PP, Greiner Cat #784201) in a total volume of 20 μL. Compound dilutions were made in 100% DMSO (VWR Chemicals 23500.297) in a polypropylene plate in 3-fold dilution steps to give a final concentration range in the assay from 12.5 μM to 0.8 pM. 0.25 μL compound dilutions (100% DMSO) were added to 9 μL MAGL in assay buffer (50 mM TRIS (GIBCO, 15567-027), 1 mM EDTA (Fluka, 03690-100 mL), 0.01% (v/v) Tween. After shaking, the plate was incubated for 15 min at RT. To start the reaction, 10 μL 2-arachidonoylglycerol in assay buffer was added. The final concentrations in the assay was 50 pM MAGL and 8 μM 2-arachidonoylglyerol. After shaking and 30 min incubation at RT, the reaction was quenched by the addition of […] of ACN containing 4 μM of d8-arachidonic acid. The amount of arachidonic acid was traced by an online SPE system (Agilent Rapidfire) coupled to a triple quadrupole mass spectrometer (Agilent 6460). A C18 SPE cartridge (G9205A) was used in an ACN/water liquid setup. The mass spectrometer was operated in negative electrospray mode following the mass transitions 303.1→259.1 for arachidonic acid and 311.1→267.0 for d8-arachidonic acid. The activity of the compounds was calculated based on the ratio of intensities [arachidonic acid/d8-arachidonic acid].
Compound `O=C(c1cccc(F)c1Cl)N1CCN2C[C@](O)(c3ccc(C(F)(F)F)cn3)CC[C@H]2C1` [Example 42, [(7S,9aS)-7-hydroxy-7-[5-(trifluoromethyl)pyridin-2-yl]-3,4,6,8,9,9a-hexahydro-1H-pyrido[1,2-a]pyrazin-2-yl]-(2-chloro-3-fluorophenyl)methanone] showed a 50% inhibitory concentration (IC50) of 4820 nM.

Compound `O=C(c1cccc(N2CC[C@H](O)C2)c1Cl)N1CCN2C[C@@](O)(c3ccc(F)c(Cl)c3)CC[C@@H]2C1` [Example 43, [(7S,9aR)-7-(3-chloro-4-fluorophenyl)-7-hydroxy-3,4,6,8,9,9a-hexahydro-1H-pyrido[1,2-a]pyrazin-2-yl]-[2-chloro-3-[(3S)-3-hydroxypyrrolidin-1-yl]phenyl]methanone] gave an IC50 of 20.7 nM.

On to `O=C(c1cccc(N2CC[C@@H](O)C2)c1Cl)N1CCN2C[C@@](O)(c3ccc(F)c(Cl)c3)CC[C@@H]2C1` [Example 44, [(7S,9aR)-7-(3-chloro-4-fluorophenyl)-7-hydroxy-3,4,6,8,9,9a-hexahydro-1H-pyrido[1,2-a]pyrazin-2-yl]-[2-chloro-3-[(3R)-3-hydroxypyrrolidin-1-yl]phenyl]methanone], for which the IC50 came to 15.4 nM.

As to `O=C(c1cccc(N2CC[C@@H](O)C2)c1Cl)N1CCN2C[C@@](O)(c3ccc(Cl)cc3)CC[C@@H]2C1` [Example 45, [(7S,9aR)-7-(4-chlorophenyl)-7-hydroxy-3,4,6,8,9,9a-hexahydro-1H-pyrido[1,2-a]pyrazin-2-yl]-[2-chloro-3-[(3R)-3-hydroxypyrrolidin-1-yl]phenyl]methanone], the IC50 worked out at 66.8 nM. With `CC1(O)CN(c2cccc(C(=O)N3CCN4C[C@@](O)(c5ccc(Cl)cc5)CC[C@@H]4C3)c2Cl)C1` [Example 46, [(7S,9aR)-7-(4-chlorophenyl)-7-hydroxy-3,4,6,8,9,9a-hexahydro-1H-pyrido[1,2-a]pyrazin-2-yl]-[2-chloro-3-(3-hydroxy-3-methylazetidin-1-yl)phenyl]methanone] the figure was 234 nM; with `O=C(c1cccc(N2CCC[C@H](O)C2)c1Cl)N1CCN2C[C@@](O)(c3ccc(F)c(Cl)c3)CC[C@@H]2C1` [Example 47, [(7S,9aR)-7-(3-chloro-4-fluorophenyl)-7-hydroxy-3,4,6,8,9,9a-hexahydro-1H-pyrido[1,2-a]pyrazin-2-yl]-[2-chloro-3-[(3S)-3-hydroxypiperidin-1-yl]phenyl]methanone], 41.5 nM.

Take `O=C(c1cccc(N2CCC[C@@H](O)C2)c1Cl)N1CCN2C[C@@](O)(c3ccc(F)c(Cl)c3)CC[C@@H]2C1` [Example 48, [(7S,9aR)-7-(3-chloro-4-fluorophenyl)-7-hydroxy-3,4,6,8,9,9a-hexahydro-1H-pyrido[1,2-a]pyrazin-2-yl]-[2-chloro-3-[(3R)-3-hydroxypiperidin-1-yl]phenyl]methanone]: the IC50 came out at 292 nM. With `O=C(c1cccc(N2CCC(O)CC2)c1Cl)N1CCN2C[C@@](O)(c3ccc(Cl)cc3)CC[C@@H]2C1` [Example 49, [(7S,9aR)-7-(4-chlorophenyl)-7-hydroxy-3,4,6,8,9,9a-hexahydro-1H-pyrido[1,2-a]pyrazin-2-yl]-[2-chloro-3-(4-hydroxypiperidin-1-yl)phenyl]methanone] the figure was 80.8 nM; with `O=C(c1cccc(N2C[C@H](O)[C@@H](O)C2)c1Cl)N1CCN2C[C@@](O)(c3ccc(F)c(Cl)c3)CC[C@@H]2C1` [Example 51, [(7S,9aR)-7-(3-chloro-4-fluorophenyl)-7-hydroxy-3,4,6,8,9,9a-hexahydro-1H-pyrido[1,2-a]pyrazin-2-yl]-[2-chloro-3-[(3S,4S)-3,4-dihydroxypyrrolidin-1-yl]phenyl]methanone], 10.9 nM. With `O=C(c1cccc(N2CC(F)(CO)C2)c1Cl)N1CCN2C[C@@](O)(c3ccc(F)c(Cl)c3)CC[C@@H]2C1` [Example 52, [(7S,9aR)-7-(3-chloro-4-fluorophenyl)-7-hydroxy-3,4,6,8,9,9a-hexahydro-1H-pyrido[1,2-a]pyrazin-2-yl]-[2-chloro-3-[3-fluoro-3-(hydroxymethyl)azetidin-1-yl]phenyl]methanone] the figure was 84.2 nM; with `O=C(c1cccc(N2CC(CO)C2)c1Cl)N1CCN2C[C@@](O)(c3ccc(F)c(Cl)c3)CC[C@@H]2C1` [Example 53, [(7S,9aR)-7-(3-chloro-4-fluorophenyl)-7-hydroxy-3,4,6,8,9,9a-hexahydro-1H-pyrido[1,2-a]pyrazin-2-yl]-[2-chloro-3-[3-(hydroxymethyl)azetidin-1-yl]phenyl]methanone], 79.7 nM; with `O=C(c1cccc(-c2cc[nH]n2)c1Cl)N1CCN2C[C@@](O)(c3ccc(F)c(Cl)c3)CC[C@@H]2C1` [Example 54, [(7S,9aR)-7-(3-chloro-4-fluorophenyl)-7-hydroxy-3,4,6,8,9,9a-hexahydro-1H-pyrido[1,2-a]pyrazin-2-yl]-[2-chloro-3-(1H-pyrazol-3-yl)phenyl]methanone], 3.08 nM. With `O=C(c1cccc(-c2cc[nH]n2)c1F)N1CCN2C[C@@](O)(c3ccc(F)c(Cl)c3)CC[C@@H]2C1` [Example 55, [(7S,9aR)-7-(3-chloro-4-fluorophenyl)-7-hydroxy-3,4,6,8,9,9a-hexahydro-1H-pyrido[1,2-a]pyrazin-2-yl]-[2-fluoro-3-(1H-pyrazol-3-yl)phenyl]methanone] the figure was 9.04 nM; with `O=C(c1cccc(-c2ccsn2)c1F)N1CCN2C[C@@](O)(c3ccc(Cl)cc3)CC[C@@H]2C1` [Example 56, [(7S,9aR)-7-(4-chlorophenyl)-7-hydroxy-3,4,6,8,9,9a-hexahydro-1H-pyrido[1,2-a]pyrazin-2-yl]-[2-fluoro-3-(1,2-thiazol-3-yl)phenyl]methanone], 37.5 nM; with `O=C(c1cccc(-c2[nH]ncc2F)c1Cl)N1CCN2C[C@@](O)(c3ccc(F)c(Cl)c3)CC[C@@H]2C1` [Example 57, [(7S,9aR)-7-(3-chloro-4-fluorophenyl)-7-hydroxy-3,4,6,8,9,9a-hexahydro-1H-pyrido[1,2-a]pyrazin-2-yl]-[2-chloro-3-(4-fluoro-1H-pyrazol-5-yl)phenyl]methanone], 0.74 nM. Regarding `O=C(c1cccc(-c2ncsn2)c1Cl)N1CCN2C[C@@](O)(c3ccc(F)c(Cl)c3)CC[C@@H]2C1` [Example 58, [(7S,9aR)-7-(3-chloro-4-fluorophenyl)-7-hydroxy-3,4,6,8,9,9a-hexahydro-1H-pyrido[1,2-a]pyrazin-2-yl]-[2-chloro-3-(1,2,4-thiadiazol-3-yl)phenyl]methanone], the IC50 was 14.2 nM. With `COc1cccc(C(=O)N2CCN3C[C@@](O)(c4ccc(F)c(F)c4)CC[C@@H]3C2)c1Cl` [Example 59, [(7S,9aR)-7-(3,4-difluorophenyl)-7-hydroxy-3,4,6,8,9,9a-hexahydro-1H-pyrido[1,2-a]pyrazin-2-yl]-(2-chloro-3-methoxyphenyl)methanone] the figure was 11.2 nM; with `COc1cccc(C(=O)N2CCN3C[C@](O)(c4ccc(F)c(F)c4)CC[C@H]3C2)c1Cl` [Example 60, [(7R,9aS)-7-(3,4-difluorophenyl)-7-hydroxy-3,4,6,8,9,9a-hexahydro-1H-pyrido[1,2-a]pyrazin-2-yl]-(2-chloro-3-methoxyphenyl)methanone], 118 nM. With `O=C(c1cccc(-c2ccn[nH]2)c1F)N1CCN2C[C@@](O)(c3ccc(F)c(F)c3)CC[C@@H]2C1` [Example 61, [(7S,9aR)-7-(3,4-difluorophenyl)-7-hydroxy-3,4,6,8,9,9a-hexahydro-1H-pyrido[1,2-a]pyrazin-2-yl]-[2-fluoro-3-(1H-pyrazol-5-yl)phenyl]methanone] the figure was 14 nM. Consider `O=C(c1cccc(-c2[nH]ncc2F)c1F)N1CCN2C[C@@](O)(c3ccc(F)c(F)c3)CC[C@@H]2C1` [Example 62, [(7S,9aR)-7-(3,4-difluorophenyl)-7-hydroxy-3,4,6,8,9,9a-hexahydro-1H-pyrido[1,2-a]pyrazin-2-yl]-[2-fluoro-3-(4-fluoro-1H-pyrazol-5-yl)phenyl]methanone], for which the IC50 was 20.5 nM. With `O=C(c1cccc(N2CC(O)C2)c1Cl)N1CCN2C[C@@](O)(c3ccc(F)c(F)c3)CC[C@@H]2C1` [Example 63, [(7S,9aR)-7-(3,4-difluorophenyl)-7-hydroxy-3,4,6,8,9,9a-hexahydro-1H-pyrido[1,2-a]pyrazin-2-yl]-[2-chloro-3-(3-hydroxyazetidin-1-yl)phenyl]methanone] the figure was 39.4 nM; with `O=C(c1cccc(-c2[nH]ncc2F)c1Cl)N1CCN2C[C@@](O)(c3ccc(C(F)(F)F)cn3)CC[C@@H]2C1` [Example 64], 13.4 nM.

The term IC50 denotes the concentration that inhibits the measured activity by half. Read a low IC50 as greater potency.
